10 compounds from US20230348493A1, “COMPOUND FOR ADJUSTING ACTIVITY OF NMDA RECEPTOR, AND PHARMACEUTICAL COMPOSITION AND USE THEREOF” (BEIJING GREATWAY PHARMACEUTICAL TECHNOLOGY CO., LTD., priority 2020, published 2023) can be followed below.

The structures appear in SMILES notation. pIC50: −log10 of the molar value.

The target of one assay is T1, NMDA receptor (Rattus norvegicus, UniProt P35439).
T1 construct: After the rats were decapitated, the prefrontal cortex and hippocampus were rapidly separated on ice; from tissue; host or cells: SD male rat prefrontal cortex and hippocampus, crude synaptosomes
As to the kind of experiment: Inhibition of [3H]-MK-801 binding to rat crude synaptosomes (receptor ligand binding assay). Particulars: affinity on NMDA; [3H]-MK-801 10 nM, rat prefrontal cortex and hippocampus crude synaptosomes; read-out: IC50. Here is the method: The affinity of the tested compounds on NMDA receptor was researched by receptor ligand binding assays.
Ten SD male rats of SPF grade were ordered and acclimated for 7 days for future use.
(§1) After the rats were decapitated, the prefrontal cortex and hippocampus were rapidly separated on ice and weighed, 10 volumes of 50 mM Tris-HCl buffer (50 mM Tris-HCl, 5 mM MgCl2·6H2O, 1 mM EDTA, 0.5% (W/V) BSA, 1 mM PMSF, 0.32 M sucrose, pH 7.4) was added, and the mixture was homogenized for five times at 1500 revolutions/min with 30 s each time. A homogenate was centrifuged for 10 min at 1000×g, and a supernatant was taken and centrifuged for 10 min at 40,000×g, the precipitates were collected, re-suspended with volumes of Tris-HCl buffer, incubated at 37° C. for 10 min, and centrifuged for 10 min at 40,000×g, finally the precipitates were re-suspended with the above buffer, aliquoted and stored at −80° C. for later use.
(2) Detection of Inhibitory Function of Tested Medicines on Binding of Crude Synaptosomes in Rats to [^3H]-MK-801
50 μg of rat crude synaptosomal proteins was added to all tubes respectively. A volume of 50 μl of MK-801 (dizocilpine) was added to a non-specific binding tube to achieve a final concentration of 100 μM, and the materials were reacted for 15 min in advance. 20 μL of control drug at corresponding concentration was added to the test tube for reaction for 15 min. A volume of 30 μl of labeled ligand [^3H]-MK-801 was successively added to all tubes to achieve a final concentration of 10 nM. All reaction tubes were supplemented to a volume of 200 μl with 50 mM Tris-HCl buffer (50 mM Tris-HCl, 5 mM MgCl2·6H2O, 1 mM EDTA, 0.5% (WN) BSA, 0.1% NaN3, pH 7.4). A reaction was carried out at 37° C. for 10 min. A type-49 glass fiber filter membrane was prepared and a sample was applied at the same time. The filter membrane was placed in a multi-head cell collector, and a reaction system was subjected to suction filtration under negative pressure and washed with an ice-cold 50 mM Tris-HCl buffer, 10 ml each time, for a total of 5 times. After suction drying, 1 ml of scintillation liquid was added to the filter membrane, the filter membrane was placed on a shaker for shaking for 1.5 h and then placed in a liquid scintillation counter on the next day to determine the radioactive intensity.
GraphPad5.0 software was used to analyze the data, and the percentage of competitive inhibition was calculated through nonlinear fitting, wherein:
Percentage of competitive inhibition %=((total binding tube cpm−compound cpm)/(total binding tube cpm−non-specific binding tube cpm))×100%;
Specific binding amount=total binding amount−non-specific binding amount, wherein each binding site was determined by double compound tubes.
For the compound `C[C@@H](O)[C@H](N)C(=O)N1CCC2(CC1)N[C@H](C(=O)N[C@H](C(N)=O)[C@@H](C)O)CS2.Cl` [A-394], the negative logarithm of the IC50 (pIC50) was 9.10.
Take `C[C@@H](O)[C@H](N)C(=O)N1CCCC2(C1)N[C@H](C(=O)N[C@H](C(N)=O)[C@@H](C)O)CS2.Cl` (some centres unmarked) [A-401]: the pIC50 was 9.36.
As to `C[C@@H](O)[C@H](N)C(=O)N1CC2(C1)N[C@H](C(=O)N1CCOCC1)CS2.Cl` [A-409], the pIC50 is 9.25.
Consider `C[C@@H](O)[C@H](N)C(=O)N1CCC2(C1)N[C@H](C(=O)N1CCCCC1)CS2.Cl` (some centres unmarked) [A-421], for which the pIC50 was 9.42.
Same read-out and setting: next, `C[C@@H](O)[C@H](N)C(=O)N1CCC2(C1)N[C@H](C(=O)N1CCN(C)CC1)CS2.Cl` (some centres unmarked) [A-429]: 9.18.
Regarding `C[C@@H](O)[C@H](N)C(=O)N1CCC2(CC1)N[C@H](C(=O)N1CCCCC1)CS2.Cl` [A-437], the negative logarithm of the IC50 (pIC50) is 9.48.
For the compound `C[C@@H](O)[C@H](N)C(=O)N1CCC2(CC1)N[C@H](C(=O)N1CCSCC1)CS2.Cl` [A-449], the pIC50 is 9.33.
As to `CN1CCN(C(=O)[C@@H]2CSC3(CCCN(C(=O)[C@@H](N)CO)C3)N2)CC1.Cl` (some centres unmarked) [A-463], the pIC50 was 9.28.
With `Cl.N[C@@H](CO)C(=O)N1CC2(C1)N[C@H](C(=O)N1CCNCC1)CS2` [A-470], the pIC50 was 9.46.
With `Cl.N[C@@H](CO)C(=O)N1CCC2(CC1)N[C@H](C(=O)N1CCNCC1)CS2` [A-476], the negative logarithm of the IC50 (pIC50) is 9.02.

The next assay has as its target T1, NMDA receptor. Description: NMDA receptor agonistic properties in rat crude synaptosomal proteins (maximum [3H]-MK-801 binding vs 1 mM glycine). The assay is classed as biochemical. Particulars: maximum [3H]-MK-801 binding % relative to 1 mM glycine; 50 μM glutamic acid. Here is the method: as §1
(3) Detection of Influence of Tested Medicines on NMDA Receptor Agonistic Properties in Rat Crude Synaptosomal Proteins
100 μg of rat crude synaptosomal proteins was added to all tubes respectively. 50 μl of 5,7-dichlorokynurenic acid was added to a non-specific binding tube to achieve a final concentration of 10 μM. All tubes were preloaded with 50 μM of glutamic acid, and the materials were reacted for 15 min in advance. 20 μL of control drug at corresponding concentration was added to the test tube, and then reacted for 15 min. 1 mM glycine was added to the maximum reaction tube. A volume of 30 μl of labeled ligand [^3H]-MK-801 was successively added to all tubes to achieve a final concentration of 10 nM, and reacted for 15 min. All reaction tubes were supplemented to a volume of 500 μl with 50 mM Tris-HCl buffer (50 mM Tris-HCl, 5 mM MgCl2·6H2O, 1 mM EDTA, 0.5% (WN) BSA, 0.1% NaN3, pH 7.4). A reaction was carried out at 37° C. for 15 min. A type-49 glass fiber filter membrane was prepared and a sample was applied at the same time. The filter membrane was placed in a multi-head cell collector, and the reaction system was subjected to suction filtration under negative pressure and washed with an ice-cold 50 mM Tris-HCl buffer, 10 ml each time, for a total of 5 times. After suction drying, 1 ml of scintillation liquid was added to the filter membrane, the filter membrane was placed on the shaker for shaking for 1.5 h and then placed in the liquid scintillation counter on the next day to determine the radioactive intensity.
In an agonistic experiment, maximum [^3H]-MK-801 binding %=((tested compounds cpm−5,7 dichlorokynurenic acid cpm)/(1 mM glycine cpm−5,7 dichlorokynurenic acid cpm))×100%.
For the compound `C[C@@H](O)[C@H](N)C(=O)N1CCC2(CC1)N[C@H](C(=O)N[C@H](C(N)=O)[C@@H](C)O)CS2.Cl` [A-394], the “Maximum agonistic efficacy (%)” value was 63%.
Regarding `C[C@@H](O)[C@H](N)C(=O)N1CCCC2(C1)N[C@H](C(=O)N[C@H](C(N)=O)[C@@H](C)O)CS2.Cl` (some centres unmarked) [A-401], the “Maximum agonistic efficacy (%)” value is on record as 75%.
For the compound `C[C@@H](O)[C@H](N)C(=O)N1CC2(C1)N[C@H](C(=O)N1CCOCC1)CS2.Cl` [A-409], the “Maximum agonistic efficacy (%)” value amounted to 36%.
Turning to `C[C@@H](O)[C@H](N)C(=O)N1CCC2(C1)N[C@H](C(=O)N1CCCCC1)CS2.Cl` (some centres unmarked) [A-421], the “Maximum agonistic efficacy (%)” value was determined as 45%.
Consider `C[C@@H](O)[C@H](N)C(=O)N1CCC2(C1)N[C@H](C(=O)N1CCN(C)CC1)CS2.Cl` (some centres unmarked) [A-429], for which the “Maximum agonistic efficacy (%)” value is on record as 57%.
On the same count and under the same terms, as for `C[C@@H](O)[C@H](N)C(=O)N1CCC2(CC1)N[C@H](C(=O)N1CCCCC1)CS2.Cl` [A-437], the figure is 42%.
As for `C[C@@H](O)[C@H](N)C(=O)N1CCC2(CC1)N[C@H](C(=O)N1CCSCC1)CS2.Cl` [A-449], the “Maximum agonistic efficacy (%)” value is reported as 38%.
Take `CN1CCN(C(=O)[C@@H]2CSC3(CCCN(C(=O)[C@@H](N)CO)C3)N2)CC1.Cl` (some centres unmarked) [A-463]: the “Maximum agonistic efficacy (%)” value stood at 59%.
As to `Cl.N[C@@H](CO)C(=O)N1CC2(C1)N[C@H](C(=O)N1CCNCC1)CS2` [A-470], the “Maximum agonistic efficacy (%)” value was found to be 33%.
As to `Cl.N[C@@H](CO)C(=O)N1CCC2(CC1)N[C@H](C(=O)N1CCNCC1)CS2` [A-476], the “Maximum agonistic efficacy (%)” value is reported as 56%.

As usually defined, the pIC50 is the IC50 on a negative log10 scale, so that one unit is a factor of ten.
